For two compounds, EC50 and IC50 results are on record in publication PMC7943599, “ATP signaling in the integrative neural center of Aplysia californica” (Scientific Reports, 2021).

Each structure is given as a SMILES string.

Broadly, the EC50 is the concentration that produces a half-maximal response. Lower therefore signals an effect from little substance. The term IC50 denotes the concentration that inhibits the measured activity by half. A low value points to greater potency in that assay.

Test [1] has as its target T1, AcP2X (Aplysia P2X receptor) (Aplysia californica, UniProt E2QDA7).
T1 construct: full-length CDS AcP2X (GenBank NP_001191558.1) expressed in Xenopus oocytes
T1 sequence (E2QDA7 1-434): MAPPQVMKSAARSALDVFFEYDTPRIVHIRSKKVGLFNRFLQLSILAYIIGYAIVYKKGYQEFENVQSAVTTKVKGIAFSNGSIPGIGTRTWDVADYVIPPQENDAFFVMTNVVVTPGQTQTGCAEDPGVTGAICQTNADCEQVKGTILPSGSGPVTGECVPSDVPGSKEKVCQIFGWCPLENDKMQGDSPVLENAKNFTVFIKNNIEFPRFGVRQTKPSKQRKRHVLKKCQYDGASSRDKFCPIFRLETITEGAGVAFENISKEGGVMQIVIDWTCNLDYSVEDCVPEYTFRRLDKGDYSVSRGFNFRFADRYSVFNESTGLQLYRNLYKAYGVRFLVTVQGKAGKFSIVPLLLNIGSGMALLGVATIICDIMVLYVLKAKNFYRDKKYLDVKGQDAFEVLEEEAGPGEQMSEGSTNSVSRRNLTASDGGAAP
Description: two-electrode voltage clamp in Xenopus oocytes, agonist dose-response (fast component; slow component EC50 […]). The test is classed as cell-based. (In general: Two-electrode voltage clamp is typically applied to oocytes expressing channels or transporters.)

Test [2] concerns the target T1, AcP2X (Aplysia P2X receptor). Description: two-electrode voltage clamp in Xenopus oocytes, inhibition of current evoked by […] ATP (fast component). The format is cell-based.

As for `Nc1ncnc2c1ncn2[C@@H]1O[C@H](COP(=O)(O)OP(=O)(O)OP(=O)(O)O)[C@@H](O)[C@H]1O` [ATP], the response in test [1] was half-maximal at 306 µM (EC50).

Take `Cc1nc(/N=N/c2ccc(S(=O)(=O)O)cc2S(=O)(=O)O)c(COP(=O)(O)O)c(C=O)c1O` [PPADS]: in test [2], the concentration for half-maximal inhibition (IC50) is 211 µM.
